According to publication PMC6209519 (Organic & biomolecular chemistry, 2018):

Assays:
chymotrypsin = experiment: Enzymatic hydrolysis assay with chymotrypsin; type: in vitro ADME; conditions: isolated enzyme chymotrypsin
HIV-1 = conditions: across the strains tested, compared with 1

MTWXEWDXKIEEYTKKIEELIγKS (sidechain bridge or staple) [Peptide 4]
% remaining after 10 mins (chymotrypsin): 57.2%

MTWEEWDKKIEEYTKKIEELIγKS [Peptide 3]
% remaining after 10 mins (chymotrypsin): 17.6%
increase in antiviral activity relative to peptide 1 (HIV-1): < 2 fold

Enfuvirtide
IC50 (HIV-1 CZA97): 0.941 ± 0.328 µM
IC50 (HIV-1 SF162): 0.0239 ± 0.0021 µM
IC50 (HIV-1 MN): 0.0065 ± 0.0006 µM
IC50 (HIV-1 DU422): 0.056 ± 0.0016 µM
